# Data taken from patent US9439920B2, “Composition for the management of nausea and vomiting” (Duchesnay Inc., priority 2013, dated 2016).
# Experiments:
# Assay type in all cases: in vivo, human
# [1] = system: pregnant women suffering from nausea and vomiting of pregnancy; experiment: Randomized controlled efficacy trial of Diclectin vs. placebo in pregnant women: plasma levels vs PUQE score; details: pregnant women treated with Diclectin for 14 days
# Experimental: A randomized controlled efficacy trial of Diclectin® vs. placebo in pregnant women was carried out as follows, with the results shown in FIG. 1.
# To assess the plasma levels of Doxylamine and PLP and the severity of nausea and vomiting of pregnancy symptoms in pregnant women treated with Diclectin®.
# The demographic and medical characteristics of the subjects are as described in Koren et al., Am J Obstet Gynecol 2010; 203(6):571.e1-7.
# The study design is as described in Koren et al., 2010, supra. Briefly, a randomized, double-blind, multicenter placebo controlled trial studying pregnant women suffering from nausea and vomiting of pregnancy, analyzed by intention to treat. Women received Diclectin (n=131) or placebo (n=125) for 14 days. Nausea and vomiting of pregnancy symptoms were evaluated daily using the pregnancy unique quantification of emesis scale (PUQE-24, Ebrahimi et al., J Obstet Gynaecol Can. 2009 September; 31(9):803-7).
# [2] = Another study with different doses of R5P (5, 10 or 20 mg) in healthy women; details: 8 healthy women, controls not administered with R5P
# Experimental: In another study, different doses of R5P were tested: 5, 10 or 20 mg of R5P (i.e. equivalent to the formulations administered to Treatment group C above, with the exception that 5, 10 or 20 mg of R5P was used rather than 40 mg R5P; 8 healthy women for each dose), and the PLP levels were compared to those measured in control healthy women not administered with R5P (24 subjects, equivalent to Treatment group A above).
# [3] = Randomized controlled bioavailability study in healthy women, three way cross over (Example 2)
# Excerpt: Three Way Cross Over Design.
# Bioavailability; Tmax, Cmax and AUC0-t between each treatment.
# [4] = co-administration of 40 mg of R5P
Compound,relation of average plasma concentration to severity of NVP (PUQE score) [1],effect on PLP levels relative to controls ([2]; 5 mg of R5P),effect on PLP levels relative to controls ([2]; 10 mg of R5P),effect on pharmacokinetics of PLP relative to controls ([2]; 20 mg of R5P),general improvement in the pharmacokinetic profile of PLP ([3]; administration of R5P),"PLP levels at 12h [3, 4]","increase in the plasma level of PLP (AUC 0-2 h) following administration of Pyridoxine [3, 4]","PLP concentration (using AUC) over the period 0-12 h ([3]; plasma, healthy women, fasted, compared with Diclectin (PA_DR), one-way ANOVA P>0.05)"
"CN(C)CCOC(C)(c1ccccc1)c1ccccn1 (stereo not drawn) [Doxylamine, reference compound]",correlates with a decrease in the severity of the NVP,,,,,,,
"Cc1cc2nc3c(=O)[nH]c(=O)nc-3n(C[C@H](O)[C@H](O)[C@H](O)COP(=O)(O)O)c2cc1C [R5P, riboflavin-5-phosphate]",,no significant effect,no significant effect,some improvement in the pharmacokinetics of PLP,less inter-subject variations and decreased time to reach steady-state PLP levels,does not significantly affect,faster increase in the plasma level of PLP,did not increase PLP levels significantly
"Cc1ncc(COP(=O)(O)O)c(C=O)c1O [PLP, Pyridoxal 5-phosphate]",correlates with a decrease in the severity of the NVP,,,,,,,
